Read-outs that look alike come from different tables or passages of the source.
What was measured:
[1] = tested on: SARS-CoV-2 (isolate USA WA1/2020); type: cell-based; details: Calu3 cells, 2 h pretreatment, MOI=0.5, 48 h post-infection, compared to DMSO control
[2] = tested on: Calu3 (ATCC, HTB-55) cells; details: average of three replicates, (sample well/aggregated DMSOavg)*100

| Compound | % Infection ([1]; 0.02 μM) | % Infection ([1]; 0.07 μM) | % Infection ([1]; 0.21 μM) | % Infection ([1]; 0.62 μM) | % Infection ([1]; 1.85 μM) | % Infection ([1]; 5.56 μM) | % Infection ([1]; 16.67 μM) | % Infection ([1]; 50.00 μM) | Viability ([2]; 0.02 μM) | Viability ([2]; 0.07 μM) | Viability ([2]; 0.21 μM) | Viability ([2]; 0.62 μM) | Viability ([2]; 1.85 μM) | Viability ([2]; 5.56 μM) | Viability ([2]; 16.67 μM) | Viability ([2]; 50.00 μM) |
| --- | --- | --- | --- | --- | --- | --- | --- | --- | --- | --- | --- | --- | --- | --- | --- | --- |
| C[C@H]1[C@@H](O)O[C@@H]2O[C@@]3(C)CC[C@H]4[C@H](C)CC[C@@H]1[C@@]24OO3 [Dihydroartemisinin] | 76.6% | 103.6% | 73.6% | 23.0% | 13.5% | 7.0% | 12.8% | 2.0% | – | – | – | – | – | – | – | – |
| C[C@H]1[C@H](OC(=O)CCC(=O)O)O[C@@H]2O[C@@]3(C)CC[C@H]4[C@H](C)CC[C@@H]1[C@@]24OO3 [Artesunate] | 110.9% | 90.0% | 80.7% | 44.7% | 18.0% | 14.7% | 16.1% | 4.7% | 95.4 | 102.6 | 100.5 | 97.7 | 95.1 | 92.9 | 91.1 | 78.3 |
| COc1cc(-c2oc3cc(O)cc(O)c3c(=O)c2O)ccc1O [Isorhamnetin] | 93.6% | 79.5% | 103.8% | 60.4% | 83.8% | 5.3% | 7.9% | – | 99.6 | 99.6 | 99.4 | 98.8 | 101.0 | 99.8 | 83.7 | 73.0 |

Source: patent US20240382448A1, “METHODS FOR TREATING CORONAVIRUS INFECTION” (priority 2021, published 2024)
